From the NIST ThermoML archive (doi:10.1016/j.fluid.2017.12.010)

Details: Liquid, Vibrating tube method

CCCCCCCCCC [decane]
Details	mass density [kg/m3]
283.55 K, 5000 kPa	742
283.56 K, 3000 kPa	740
283.56 K, 20000 kPa	752
283.56 K, 30000 kPa	758
283.56 K, 40000 kPa	763
283.56 K, 50000 kPa	769
283.56 K, 60000 kPa	774
283.56 K, 70000 kPa	779
283.56 K, 80000 kPa	783
283.56 K, 90000 kPa	788
283.57 K, 1000 kPa	739
283.57 K, 10000 kPa	745
283.58 K, 100 kPa	738
293.48 K, 100 kPa	731
293.48 K, 1000 kPa	731
293.49 K, 5000 kPa	734
293.49 K, 10000 kPa	738
293.49 K, 20000 kPa	745
293.5 K, 30000 kPa	751
293.5 K, 40000 kPa	757
293.5 K, 50000 kPa	763
293.5 K, 100000 kPa	787
293.51 K, 60000 kPa	768
293.51 K, 70000 kPa	773
293.51 K, 80000 kPa	778
293.51 K, 90000 kPa	783
303.42 K, 100 kPa	723
303.42 K, 1000 kPa	724
303.42 K, 10000 kPa	731
303.42 K, 30000 kPa	745
303.42 K, 40000 kPa	751
303.42 K, 70000 kPa	768
303.42 K, 80010 kPa	773
303.42 K, 90000 kPa	777
303.43 K, 5000 kPa	727
303.43 K, 20000 kPa	738
303.43 K, 50000 kPa	757
303.43 K, 60000 kPa	762
303.43 K, 100000 kPa	782
313.35 K, 100 kPa	716
313.35 K, 1000 kPa	717
313.35 K, 5000 kPa	721
313.35 K, 40000 kPa	746
313.36 K, 20000 kPa	732
313.36 K, 50000 kPa	752
313.36 K, 70000 kPa	763
313.36 K, 80000 kPa	768
313.36 K, 90000 kPa	773
313.36 K, 100000 kPa	777
313.37 K, 10000 kPa	725
313.37 K, 30000 kPa	739
313.37 K, 60000 kPa	757
323.24 K, 100 kPa	708
323.24 K, 1000 kPa	709
323.24 K, 100000 kPa	771
323.25 K, 5000 kPa	712
323.25 K, 10000 kPa	717
323.25 K, 20000 kPa	725
323.25 K, 30000 kPa	732
323.25 K, 40000 kPa	739
323.25 K, 50000 kPa	745
323.25 K, 60000 kPa	751
323.25 K, 70000 kPa	757
323.25 K, 80000 kPa	762
323.25 K, 90000 kPa	767
333.12 K, 5000 kPa	705
333.12 K, 10000 kPa	710
333.12 K, 20000 kPa	718
333.13 K, 100 kPa	700
333.13 K, 1000 kPa	701
333.13 K, 30000 kPa	726
333.13 K, 80000 kPa	757
333.13 K, 90000 kPa	762
333.13 K, 100000 kPa	767
333.14 K, 40000 kPa	733
333.14 K, 50000 kPa	740
333.14 K, 60000 kPa	746
333.14 K, 70000 kPa	751
343.01 K, 100 kPa	693
343.01 K, 1000 kPa	694
343.01 K, 10000 kPa	703
343.01 K, 20000 kPa	712
343.01 K, 30000 kPa	720
343.01 K, 40000 kPa	727
343.01 K, 50000 kPa	734
343.01 K, 60000 kPa	740
343.02 K, 5000 kPa	698
343.02 K, 70000 kPa	746
343.02 K, 80000 kPa	752
343.02 K, 90000 kPa	757
343.02 K, 100000 kPa	762
352.87 K, 100 kPa	686
352.87 K, 1000 kPa	687
352.87 K, 5000 kPa	691
352.88 K, 10000 kPa	696
352.88 K, 20000 kPa	706
352.88 K, 30000 kPa	714
352.88 K, 40000 kPa	722
352.88 K, 50000 kPa	729
352.88 K, 60000 kPa	735
352.89 K, 70000 kPa	741
352.89 K, 80000 kPa	747
352.89 K, 90000 kPa	753
352.89 K, 100000 kPa	758
362.69 K, 100 kPa	677
362.69 K, 1000 kPa	678
362.7 K, 5000 kPa	683
362.7 K, 10000 kPa	689
362.71 K, 20000 kPa	699
362.71 K, 30000 kPa	708
362.71 K, 40000 kPa	716
362.71 K, 50000 kPa	723
362.71 K, 60000 kPa	730
362.72 K, 70000 kPa	736
362.72 K, 80000 kPa	742
362.72 K, 90000 kPa	747
362.72 K, 100000 kPa	753
